Key:
[1] = tested on: MT-4; test: Toxicity to uninfected MT-4 cells, live cell count by trypan blue after 4 days culture; type: cell-based; details: for MT-4 (live cells) / Toxicity (% control): uninfected MT-4 cells; for MT-4 (live cells): 4 days
Experimental: (§1) A test for the activity to inhibit hyperplasia of HIV was conducted in accordance with the method proposed by Harada et al [Science, 229, 563-5663 (1985)]. Testing conditions: Cell: […] (HTLV-I-carrying cell line) Virus: THLV-IIIb (one kind of HIV); HTLV-IIIb was prepared from the supernatant of the culture broth of MOLT-4/HIV, a HIV-producing cell. The potency of the virus was 1 x 10⁶ TCID 50/ml. Culture medium: RPMI-1640 (containing 10% bovine fetal serum, 100 IV/penicilin, and 100 µg/ml streptomycin) Culture conditions: In each of the wells of a 24-well culture tray, […] cells (6.6 x 10⁵/ml, 0.3 ml) and HTLV-II Ib ([…], 0.2 ml) were placed [multiplicity of infection (MOI = 0.02)] and cultured for 1 hour. After adsorption of virus, Compound A diluted with culture medium (0.5 ml) was added to a total volume of 1.0 ml and cultured at 37°C for 4 days. Cells not infected by HTLV-IIIb dilution aqueous solution and cells not treated with Compound A were used as controls.
(§2) Virally infected cells and uninfected cells were cultured for 4 days. After the culture, the live cells were counted by the trypan blue tinting method. The property of cytopathic effect suppression was evaluated by comparison of the number of live cells in the culture broths of virally infected cells and uninfected cells both obtained in the absence of Compound A.

[2] = tested on: HTLV-IIIb (one kind of HIV); test: Test for activity to inhibit hyperplasia of HIV: suppression of cytopathic effect (CPE), live cells counted by trypan blue; type: cell-based, human immunodeficiency virus (HIV); details: for MT-4/HIV (live cells): HTLV-IIIb infected MT-4 cells, MOI 0.02, 4 days
Experimental: as §1, §2

[3] = tested on: Reverse transcriptase originating in avain myeloblastic virum; test: Test for activity to inhibit reverse transcriptase ([³H] thymidine triphosphate incorporation); type: biochemical; design: Radio activity #1 / Radio activity #2: unit not given here; details: for % control: inhibition of reverse transcriptase
Experimental: This test was carried out by the method described below.
This test solution was prepared by dissolving Compound A in a concentration of 5 mg/ml in dimethyl sulfoxide and diluting the resultant solution with distilled water.
Fifty (50) µl of the measuring solution and 50 µl of the test solution were mixed and left reacting at 37°C for one hour. The reaction mixture was cooled with ice to stop the reaction. Then 50 µl of […] by a disk of DEAE cellulose paper 2.4 cm in diameter. The wet paper was washed three times with an aqueous 5% […] (with 12 molecules of crystal water) and once each with distilled water and ethanol. The radioactivity was determined with a liquid scintillation counter.

Substance: K₇PW₁₀Ti₂O₄₀·6H₂O [Compound A]
- toxicity ([1]; 25 to 100 ug/ml, MT-4): only inconspicuous toxicity
- MT-4 (live cells) ([1]; Compound A 25 µg/ml): 11.8 x 10⁵ cells/ml
- MT-4 (live cells) ([1]; Compound A 50 µg/ml): 9.8 x 10⁵ cells/ml
- MT-4 (live cells) ([1]; Compound A 100 µg/ml): 10.1 x 10⁵ cells/ml
- MT-4 (live cells) ([1]; Compound A 200 µg/ml): 8.5 x 10⁵ cells/ml
- MT-4 (live cells) ([1]; Compound A 400 µg/ml): 6.0 x 10⁵ cells/ml
- Toxicity (% control) ([1]; Compound A 25 µg/ml): 0 % control
- Toxicity (% control) ([1]; Compound A 50 µg/ml): 1 % control
- Toxicity (% control) ([1]; Compound A 100 µg/ml): 0 % control
- Toxicity (% control) ([1]; Compound A 200 µg/ml): 21 % control
- Toxicity (% control) ([1]; Compound A 400 µg/ml): 44 % control
- activity to control CPE ([2]; 25 to 100 ug/ml, MT-4/HIV): excelled in activity to control CPE
- MT-4/HIV (live cells) ([2]; Compound A 25 µg/ml): 10.0 x 10⁵ cells/ml
- MT-4/HIV (live cells) ([2]; Compound A 50 µg/ml): 9.8 x 10⁵ cells/ml
- MT-4/HIV (live cells) ([2]; Compound A 100 µg/ml): 8.5 x 10⁵ cells/ml
- MT-4/HIV (live cells) ([2]; Compound A 200 µg/ml): 4.8 x 10⁵ cells/ml
- MT-4/HIV (live cells) ([2]; Compound A 400 µg/ml): 4.7 x 10⁵ cells/ml
- % CPE Control ([2]; MT-4/HIV, Compound A 25 µg/ml): 90%
- % CPE Control ([2]; MT-4/HIV, Compound A 50 µg/ml): 88%
- % CPE Control ([2]; MT-4/HIV, Compound A 100 µg/ml): 71%
- % CPE Control ([2]; MT-4/HIV, Compound A 200 µg/ml): 25%
- % CPE Control ([2]; MT-4/HIV, Compound A 400 µg/ml): 47%
- Average value (CPM) ([3]; Concentration 12,500 µg/ml): 3906.0 CPM
- Radio activity #1 ([3]; Concentration 12,500 µg/ml): 3666
- Radio activity #2 ([3]; Concentration 12,500 µg/ml): 4146
- % control ([3]; Concentration 12,500 µg/ml): 50.8%
- Average value (CPM) ([3]; Concentration 25,000 µg/ml): 3878.0 CPM
- Radio activity #1 ([3]; Concentration 25,000 µg/ml): 3143
- Radio activity #2 ([3]; Concentration 25,000 µg/ml): 4613
- % control ([3]; Concentration 25,000 µg/ml): 51.2%
- Average value (CPM) ([3]; Concentration 50,000 µg/ml): 2450.5 CPM
- Radio activity #1 ([3]; Concentration 50,000 µg/ml): 1828
- Radio activity #2 ([3]; Concentration 50,000 µg/ml): 3079
- % control ([3]; Concentration 50,000 µg/ml): 71.1%
- Average value (CPM) ([3]; Concentration 100,000 µg/ml): 1391.0 CPM
- Radio activity #1 ([3]; Concentration 100,000 µg/ml): 1231
- Radio activity #2 ([3]; Concentration 100,000 µg/ml): 1391
- % control ([3]; Concentration 100,000 µg/ml): 86.0%
- Average value (CPM) ([3]; Concentration 200,000 µg/ml): 967.0 CPM
- Radio activity #1 ([3]; Concentration 200,000 µg/ml): 970
- Radio activity #2 ([3]; Concentration 200,000 µg/ml): 930
- % control ([3]; Concentration 200,000 µg/ml): 92.0%
- activity to inhibit reverse transcriptase ([3]; summary in words of Table 2): manifested an activity to inhibit reverse transcriptase even in a small application rate

From patent publication EP0388245A1, “Agent resistant to AIDS virus” (TERUMO KABUSHIKI KAISHA, priority 1989, dated 1990)
